Source: patent publication US5659038A, “5-vinyl-and 5-ethinyl-quinolone- and -naphthyridone-carboxylic acids” (Bayer Aktiengesellschaft, priority 1994, dated 1997)
Converted amounts (≈) assume the structure as drawn. Where a name gives a salt, the structure may show the parent alone. Read-outs that look alike come from different tables or passages of the source.

What was measured:
Type in all cases: cell-based
[1] = test system: Enterococcus faecalis 27101; experiment: MIC, serial agar dilution
Method: (§1) The minimum inhibitory concentrations (MICs) were determined in serial dilution tests using Iso-Sensitest Agar (Oxoid). For each test substance, a series of agar plates was prepared which contained concentrations of the active compound which decreased as a result of dilution to twice the volume each time. The agar plates were inoculated using a Multipoint Inoculator (Denley). For inoculation, overnight cultures of the pathogens were used which had previously been diluted to such a concentration that each inoculation point contained approximately 10^4 colony-forming particles. The inoculated agar plates were incubated at 37° C., and the microbial growth was determined after approximately 20 hours. The MIC value (μg/ml) indicates the lowest concentration of active compound at which no growth was discernible with the naked eye.

[2] = test system: Enterococcus faecalis 9790; experiment: MIC, serial agar dilution
Method: as §1

[3] = test system: Staphylococcus aureus 133; experiment: MIC, serial agar dilution
Method: as §1

[4] = test system: Enterobater cloaceae 2427; experiment: MIC, serial agar dilution
Method: as §1

[5] = test system: Staphylococcus aureus ICB 25701; experiment: MIC, serial agar dilution
Method: as §1

Enterobater aer.ICB 5240 = experiment: MIC, serial agar dilution
Method: as §1

[6] = test system: Staphylococcus aureus ATTC 29213; experiment: MIC, serial agar dilution
Method: as §1

E. coli Neumann = experiment: MIC, serial agar dilution; conditions: Escherichia coli
Method: as §1

E. coli G293 Lh = experiment: MIC, veterinary microorganisms; conditions: Escherichia coli, G293LH, 20 h
Method: as §1
(§2) Table 3 lists MIC values of compounds according to the invention against microorganisms which aye specific to veterinary medicine. The comparison compound shown in this case is enrofloxacin (ENRO), which is a therapeutic used in veterinary medicine.

Staph. Z 318 Lh = experiment: MIC, veterinary microorganisms; conditions: 20 h
Method: as §1, §2

Staph. Z433-4 LH = experiment: MIC, veterinary microorganisms; conditions: 20 h
Method: as §1, §2

E. coli 21 Bui = experiment: MIC, veterinary microorganisms; conditions: Escherichia coli, 20 h
Method: as §1, §2

Staph. Ky 469 We = experiment: MIC, veterinary microorganisms; conditions: 20 h
Method: as §1, §2

[7] = Enterococcus faecalis 27101, Iso-Sensitest Agar, 37° C., approximately 20 hours, read-out: MIC
[8] = Enterococcus faecalis 9790, Iso-Sensitest Agar, 37° C., approximately 20 hours, read-out: MIC
[9] = Staphylococcus aureus 133, Iso-Sensitest Agar, 37° C., approximately 20 hours, read-out: MIC
[10] = Enterobater cloaceae 2427, Iso-Sensitest Agar, 37° C., approximately 20 hours, read-out: MIC
[11] = Staphylococcus aureus, ICB25701, 20 h
[12] = Enterobater aer.ICB 5240, Iso-Sensitest Agar, 37° C., approximately 20 hours, read-out: MIC
[13] = ATTC29213, Staphylococcus aureus ATTC 29213, Iso-Sensitest Agar, 37° C., approximately 20 hours, read-out: MIC
[14] = E. coli Neumann, Iso-Sensitest Agar, 37° C., approximately 20 hours, read-out: MIC
[15] = ICB25701, Staphylococcus aureus ICB 25701, Iso-Sensitest Agar, 37° C., approximately 20 hours, read-out: MIC
[16] = Staphylococcus aureus, ATTC29213, 20 h

Row | MIC (E. coli G293 Lh) [µg/mL] | MIC (Staph. Z 318 Lh) [µg/mL] | MIC (Staph. Z433-4 LH) [µg/mL] | MIC (E. coli 21 Bui) [µg/mL] | MIC (Staph. Ky 469 We) [µg/mL] | Compound | MIC [1, 7] [µg/mL] | MIC [2, 8] [µg/mL] | MIC [3, 9] [µg/mL] | MIC [4, 10] [µg/mL] | MIC [5, 11] [µg/mL] | MIC (Enterobater aer.ICB 5240; [12]) [µg/mL] | MIC [6, 13] [µg/mL] | MIC (E. coli Neumann; [14]) [µg/mL] | MIC [5, 15] [µg/mL] | MIC (Enterobater aer.ICB 5240; 20 h) [µg/mL] | other results
1 |  |  |  |  |  | C=Cc1c(F)c(N2C[C@@H]3CCCN[C@@H]3C2)c(F)c2c1c(=O)c(C(=O)O)cn2C1CC1 (relative stereo) [Compound 2, 1-cyclopropyl-7-(cis-2,8-diazabicyclo[4.3.0]non-8-yl)-6,8-difluoro-1,4-dihydro-4-oxo-5-vinyl-3-quinolinecarboxylic acid] | 0.125 (≈ 0.301 µM) | 0.125 (≈ 0.301 µM) | 0.06 (≈ 0.144 µM) | 0.125 (≈ 0.301 µM) | 1 (≈ 2.41 µM) | 16 (≈ 38.5 µM) | 0.06 (≈ 0.144 µM) | 0.06 (≈ 0.144 µM) |  |  | 
2 |  |  |  |  |  | C=Cc1c(F)c(N2CCN(C)CC2)c(F)c2c1c(=O)c(C(=O)O)cn2C1CC1 [Compound 1, 1-cyclopropyl-6,8-difluoro-1,4-dihydro-4-oxo-7-(4-methyl-1-piperazinyl)-4-oxo-5-vinyl-3-quinolinecarboxylic acid] |  |  |  |  |  |  |  | 0.06 (≈ 0.154 µM) | 64 (≈ 164 µM) | 32 (≈ 82.2 µM) | MIC ([1]; Enterococcus faecalis, 27101, 20 h): 1 µg/mL (≈ 2.57 µM); MIC ([2]; Enterococcus faecalis, 9790, 20 h): 1 µg/mL (≈ 2.57 µM); MIC ([3]; Staphylococcus aureus, 133, 20 h): 0.25 µg/mL (≈ 0.642 µM); MIC ([4]; 20 h): 0.25 µg/mL (≈ 0.642 µM); MIC [6, 16]: 0.25 µg/mL (≈ 0.642 µM)
3 |  |  |  |  |  | C=Cc1c(F)c(N2C[C@@H]3CCCN[C@@H]3C2)c(F)c2c1c(=O)c(C(=O)O)cn2C1CC1 [Compound 3, 1-cyclopropyl-7-(S,S-2,8-diazabicyclo[4.3.0]non-8-yl)-6,8-difluoro-1,4-dihydro-4-oxo-5-vinyl-3-quinolinecarboxylic acid] | 0.125 (≈ 0.301 µM) | 0.125 (≈ 0.301 µM) | 0.03 (≈ 0.0722 µM) | 0.06 (≈ 0.144 µM) | 0.5 (≈ 1.2 µM) |  | 0.03 (≈ 0.0722 µM) | ≤ 0.015 |  | 8 (≈ 19.3 µM) | 
4 | 32 | 2 | 0.03 | 16 | 0.03 | C=Cc1c(F)c(N2CCC(N)C2)c(F)c2c1c(=O)c(C(=O)O)cn2C1CC1.Cl (stereo not shown) [Compound 5, 7-(3-aminopyrrolidin-1-yl)-1-cyclopropyl-6,8-difluoro-1,4-dihydro-4-oxo-5-vinyl-3-quinolinecarboxylic acid hydrochloride] | 0.06 | 0.125 | 0.03 | ≤ 0.015 |  | 4 | ≤ 0.015 | ≤ 0.015 | 2 |  | 
5 | 8 (≈ 18.7 µM) | 0.06 (≈ 0.14 µM) | 0.015 (≈ 0.0351 µM) | 4 (≈ 9.36 µM) | 0.015 (≈ 0.0351 µM) | C=Cc1c(F)c(N2CC3CC=CC(N)C3C2)c(F)c2c1c(=O)c(C(=O)O)cn2C1CC1 (stereo not shown) [Compound 6, 7-(4-amino-1,3,3a,4,7,7a-hexahydro-isoindol-2-yl)-1-cyclopropyl-6,8-difluoro-1,4-dihydro-4-oxo-5-vinyl-3-quinolinecarboxylic acid] | 0.03 (≈ 0.0702 µM) | 0.03 (≈ 0.0702 µM) | ≤ 0.015 | 0.125 (≈ 0.292 µM) |  | 4 (≈ 9.36 µM) | ≤ 0.015 | 0.015 (≈ 0.0351 µM) | 0.03 (≈ 0.0702 µM) |  | 
6 |  |  |  |  |  | C=Cc1c(F)c(N2CC3CC=CC(NC)C3C2)c(F)c2c1c(=O)c(C(=O)O)cn2C1CC1 (stereo not shown) [Compound 7, 7-(4-methylamino-1,3,3a,4,7,7a-hexahydro-isoindol-2-yl)-1-cyclopropyl-6,8-difluoro-1,4-dihydro-4-oxo-5-vinyl-3-quinolinecarboxylic acid] | 0.03 (≈ 0.068 µM) | 0.03 (≈ 0.068 µM) | ≤ 0.015 | 0.125 (≈ 0.283 µM) |  |  | ≤ 0.015 | 0.03 (≈ 0.068 µM) | 0.03 (≈ 0.068 µM) | 8 (≈ 18.1 µM) | 
7 |  |  |  |  |  | C=Cc1c(F)c(N2CC3CCOC3(CN)C2)c(F)c2c1c(=O)c(C(=O)O)cn2C1CC1 (stereo not shown) [Compound 11, 7-(6a-aminomethylhexahydro-furo[2,3-c]pyrrol-5-yl)-1-cyclopropyl-6,8-difluoro-1,4-dihydro-4-oxo-5-vinyl-3-quinolinecarboxyllc acid hydrochloride] | 0.125 | 0.125 | 0.015 | 0.125 | 0.5 |  | 0.015 | 0.03 |  | 32 | 
8 |  |  |  |  |  | CCc1c(F)c(N2CCN(C)CC2)c(F)c2c1c(=O)c(C(=O)O)cn2C1CC1 [Compound K, 1-cyclopropyl-5-ethyl-6,8-difluoro-1,4-dihydro-7-(4-methyl-1-piperazinyl)-4-oxo-3-quinolinecarboxylic acid, reference compound] | 64 (≈ 164 µM) | 64 (≈ 164 µM) | 16 (≈ 40.9 µM) |  |  | ≤ 128 |  |  | 64 (≈ 164 µM) |  | MIC ([4]; 20 h): 1 µg/mL (≈ 2.55 µM); MIC [6, 16]: 8 µg/mL (≈ 20.4 µM); MIC (E. coli Neumann; 20 h): 0.25 µg/mL (≈ 0.639 µM)
9 | 32 (≈ 89 µM) | 8 (≈ 22.3 µM) | 0.25 (≈ 0.696 µM) | 32 (≈ 89 µM) | 0.12 (≈ 0.334 µM) | CCN1CCN(c2cc3c(cc2F)c(=O)c(C(=O)O)cn3C2CC2)CC1 [ENRO, enrofloxacin, reference compound] |  |  |  |  |  |  |  |  |  |  | 
